US20260199323A1, “LIGAND COMPOUNDS FOR E3 UBIQUITIN LIGASE, PROTEIN DEGRADERS DEVELOPED ON BASIS OF LIGAND COMPOUNDS, AND USES THEREOF” (GLUETACS THERAPEUTICS (SHANGHAI) CO., LTD., priority 2021, published 2026)
Where two headings read alike, the source gives them in different places.

Assays:
Type in all cases: cell-based, Human
MDA-MB-231 = experiment: CCK-8 tumor cell proliferation, MDA-MB-231; conditions: Homo sapiens, MDA-MB-231, read-out: IC50 inhibiting proliferation of tumor cells, MDA-MB-231
In short: (§1)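 Authenticated cells, kept at 37 °C and 5% CO2, were given compound a day after plating; doses spanned 10 levels in 5-fold decrements from 10 μM. IC50 values come from CCK-8 viability readings.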

SW620 = experiment: CCK-8 tumor cell proliferation, SW620; conditions: for IC50: Homo sapiens, SW-620, Table 18, FAK inhibitor based, SW620, read-out: IC50 inhibiting proliferation of tumor cells, SW620; for IC50 for inhibiting the proliferation of tumor cells, SW620: Table 8, designed based on ER inhibitors, 96 h
In short: as §1

CCRF-CEM = experiment: CCK-8 tumor cell proliferation, CCRF-CEM; design: IC50 for inhibiting the proliferation of tumor cells, CCRF-CEM: scale not given here; conditions: for IC50: Homo sapiens, CCRF-CEM, read-out: IC50 inhibiting proliferation of tumor cells, CCRF-CEM; for IC50 for inhibiting the proliferation of tumor cells, CCRF-CEM: Table 8, designed based on ER inhibitors, 96 h
In short: as §1

Vcap = experiment: CCK-8 tumor cell proliferation, Vcap; conditions: for IC50: Homo sapiens, VCaP, Vcap, read-out: IC50 inhibiting proliferation of tumor cells, Vcap; for IC50 for inhibiting the proliferation of tumor cells, Vcap: Table 8, designed based on ER inhibitors, 96 h
Description: (§2) The tumor cells used herein were cultured in a cell culture medium listed in table 4 at 37° C. in an incubator with 5% CO2. Prior to experimentation, all cells used were correctly identified by STR profiling, and tested negative for mycoplasma through routine screenings.
(§3) IC50 values of the compounds of the present disclosure (including the compounds in Tables 1 and 3, and compounds of examples) were measured using the Meilun Cell Counting Kit-8 kit from Dalian Meilun Biotech Co., Ltd. Assay details are as follows: tumor cells were seeded in a 96-well plate at a density listed in Table 5. After 24 h, 100 μL of the inoculated cells were treated with 0.5 μL of the compounds of the present disclosure (including the compounds in Tables 1 and 3, and compounds of examples) at 10 different successively decreasing concentrations (starting at the highest concentration of 10 μM; 5-fold serial dilutions). After the cells were treated with the compounds of the present disclosure for a period of time, the cell viability detection reagent was added to the culture medium for cell viability assessment according to the instructions provided with the CCK-8 kit. […] The growth inhibition of the compounds of the present disclosure on cells was plotted by Prism Graphpad software, and the IC50 values of the compounds of the present disclosure were calculated therefrom.

Mino = experiment: CCK-8 tumor cell proliferation, Mino; conditions: Homo sapiens, Mino, read-out: IC50 inhibiting proliferation of tumor cells, Mino
Description: as §2, §3

PC-9 = experiment: CCK-8 tumor cell proliferation, PC-9; conditions: Homo sapiens, PC-9, read-out: IC50 inhibiting proliferation of tumor cells, PC-9
Description: The tumor cells used herein were cultured in a cell culture medium listed in table 4 at 37° C. in an incubator with 5% CO2.
as §3, with “After” for “IC50 values of the compounds of the present disclosure (including the compounds in Tables 1 and 3, and compounds of examples) were measured using the Meilun Cell Counting Kit-8 kit from Dalian Meilun Biotech Co., Ltd. Assay details are as follows: tumor cells were seeded in a 96-well plate at a density listed in Table 5. After”

MV-4-11 = experiment: CCK-8 tumor cell proliferation, MV-4-11; conditions: Homo sapiens, MV4-11; Table 15, ALK inhibitor based; MV-4-11; read-out: IC50 inhibiting proliferation of tumor cells, MV-4-11
Description: as §2, §3

SR = experiment: CCK-8 tumor cell proliferation, SR; conditions: Homo sapiens; Table 15, ALK inhibitor based; SR; read-out: IC50 inhibiting proliferation of tumor cells, SR
In short: as §1

CAL-62 = experiment: CCK-8 tumor cell proliferation, CAL-62; design: IC50 for inhibiting the proliferation of tumor cells, CAL-62: scale not given here; conditions: for IC50 for inhibiting the proliferation of tumor cells, CAL-62: Table 8, designed based on ER inhibitors, 72 h; for IC50: Homo sapiens, Table 18, FAK inhibitor based, CAL-62, read-out: IC50 inhibiting proliferation of tumor cells, CAL-62
In short: as §1

Jurkat = experiment: CCK-8 tumor cell proliferation, Jurkat; conditions: Homo sapiens, Table 22, NTRK inhibitor based, read-out: IC50 inhibiting proliferation of tumor cells, Jurkat
Description: as §2, §3

CN(Cc1ccc2c(c1)CN(C1CCC(=O)NC1=O)C2=O)C1CCN(c2ccc(Nc3ncc(C(F)(F)F)c(NCc4nccnc4N(C)S(C)(=O)=O)n3)cc2)CC1 (stereo not drawn) [GT-03705, N-(3-(((2-((4-(4-(((2-(2,6-dioxopiperidin-3-yl)-1-oxoisoindolin-5-yl)methyl)(methyl)amino)piperidin-1-yl)phenyl)amino)-5-(trifluoromethyl)pyrimidin-4-yl)amino)methyl)pyrazin-2-yl)-N-methylmethanesulfonamide]
IC50 (MDA-MB-231; Table 18, FAK inhibitor based): < 0.05 µM | IC50 (SW620): 0.1 to 0.5 µM | IC50 (CCRF-CEM; Table 18, FAK inhibitor based): 0.05 to 0.1 µM | IC50 (Vcap; Table 18, FAK inhibitor based): 0.1 to 0.5 µM | IC50 (Mino; Table 18, FAK inhibitor based): < 0.05 µM | IC50 (PC-9; Table 18, FAK inhibitor based): 1 to 5 µM

CCc1cc2c(cc1N1CCC(N3CCN(Cc4cc5c(cc4F)C(=O)N(C4CCC(=O)NC4=O)C5)CC3)CC1)C(C)(C)c1[nH]c3cc(C#N)ccc3c1C2=O (stereo not drawn) [GT-03759, 8-(4-(4-((2-(2,6-dioxopiperidin-3-yl)-6-fluoro-1-oxoisoindolin-5-yl)methyl)piperazin-1-yl)piperidin-1-yl)-9-ethyl-6,6-dimethyl-11-oxo-6,11-dihydro-5H-benzo[b]carbazole-3-carbonitrile]
IC50 (MV-4-11): 0.1 to 0.5 µM | IC50 (SR): < 0.05 µM | IC50 (Mino; Table 15, ALK inhibitor based): 0.5 to 1 µM | IC50 (PC-9; Table 15, ALK inhibitor based): 0.1 to 0.5 µM

CCc1cc2c(cc1N1CCC(N3CCN(Cc4cccc5c4CN(C4CCC(=O)NC4=O)C5=O)CC3)CC1)C(C)(C)c1[nH]c3cc(C#N)ccc3c1C2=O (stereo not drawn) [GT-03764, 8-(4-(4-((2-(2,6-dioxopiperidin-3-yl)-1-oxoisoindolin-4-yl)methyl)piperazin-1-yl)piperidin-1-yl)-9-ethyl-6,6-dimethyl-11-oxo-6,11-dihydro-5H-benzo[b]carbazole-3-carbonitrile]
IC50 (MDA-MB-231; Table 15, ALK inhibitor based): 0.05 to 0.1 µM | IC50 (MV-4-11): 0.05 to 0.1 µM | IC50 (SR): < 0.05 µM | IC50 (Mino; Table 15, ALK inhibitor based): 0.05 to 0.1 µM | IC50 (PC-9; Table 15, ALK inhibitor based): 0.1 to 0.5 µM

O=C1CCC(N2C(=O)c3ccc(CBr)cc3C2=O)C(=O)N1 (stereo not drawn) [GT-03855]
IC50 for inhibiting the proliferation of tumor cells, CCRF-CEM (CCRF-CEM): A+ | IC50 for inhibiting the proliferation of tumor cells, Vcap (Vcap): A+ | IC50 for inhibiting the proliferation of tumor cells, CAL-62 (CAL-62): A+

O=C1CCC(N2Cc3cc(CN4CCN(c5cccc(-c6cnc7ccc(N8CCC[C@@H]8c8cccc(F)c8)nn67)n5)CC4)c(F)cc3C2=O)C(=O)N1 (stereo partly drawn) [GT-03866, 3-(6-fluoro-5-((4-(6-(6-((R)-2-(3-fluorophenyl)pyrrolidin-1-yl)imidazo[1,2-b]pyridazin-3-yl)pyridin-2-yl)piperazin-1-yl)methyl)-1-oxoisoindolin-2-yl)piperidine-2,6-dione]
IC50 (CCRF-CEM; Table 22, NTRK inhibitor based): < 0.05 µM | IC50 (Vcap; Table 22, NTRK inhibitor based): 0.05 to 0.1 µM | IC50 (Jurkat): < 0.05 µM

CNC(=O)c1ccccc1Nc1cc(Nc2cc(C)c(N3CCN(Cc4ccc5c(c4)CN(C4CCC(=O)NC4=O)C5=O)CC3)cc2OC(C)C)ncc1C(F)(F)F (stereo not drawn) [GT-03940, 2-((2-((4-(4-((2-(2,6-dioxopiperidin-3-yl)-1-oxoisoindolin-5-yl)methyl)piperazin-1-yl)-2-isopropoxy-5-methylphenyl)amino)-5-(trifluoromethyl)pyridin-4-yl)amino)-N-methylbenzamide]
IC50 (SW620): 0.05 to 0.1 µM | IC50 (Vcap; Table 18, FAK inhibitor based): 0.5 to 1 µM | IC50 (CAL-62): < 0.05 µM

CNC(=O)c1ccccc1Nc1cc(Nc2cc(C)c(N3CCN(Cc4ccc5c(c4F)CN(C4CCC(=O)NC4=O)C5=O)CC3)cc2OC(C)C)ncc1C(F)(F)F (stereo not drawn) [GT-03941, 2-((2-((4-(4-((2-(2,6-dioxopiperidin-3-yl)-4-fluoro-1-oxoisoindolin-5-yl)methyl)piperazin-1-yl)-2-isopropoxy-5-methylphenyl)amino)-5-(trifluoromethyl)pyridin-4-yl)amino)-N-methylbenzamide]
IC50 (SW620): < 0.05 µM | IC50 (Vcap; Table 18, FAK inhibitor based): 0.1 to 0.5 µM | IC50 (CAL-62): < 0.05 µM

CCC(=C(c1ccc(O)cc1)c1ccc(N2CCN(Cc3ccc4c(c3F)CN(C3CCC(=O)NC3=O)C4=O)CC2)cc1)c1ccc(O)cc1 (stereo not drawn) [GT-04144, 3-(5-((4-(4-(1,2-bis(4-hydroxyphenyl)but-1-en-1-yl)phenyl)piperazin-1-yl)methyl)-4-fluoro-1-oxoisoindolin-2-yl)piperidine-2,6-dione]
IC50 for inhibiting the proliferation of tumor cells, SW620 (SW620): A+ | IC50 for inhibiting the proliferation of tumor cells, CCRF-CEM (CCRF-CEM): A+ | IC50 for inhibiting the proliferation of tumor cells, Vcap (Vcap): A+ | IC50 for inhibiting the proliferation of tumor cells, CAL-62 (CAL-62): A+

CCC(=C(c1ccc(O)cc1)c1ccc(N2CCN(Cc3cc4c(cc3F)C(=O)N(C3CCC(=O)NC3=O)C4)CC2)cc1)c1ccc(O)cc1 (stereo not drawn) [GT-04145, 3-(5-((4-(4-(1,2-bis(4-hydroxyphenyl)but-1-en-1-yl)phenyl)piperazin-1-yl)methyl)-6-fluoro-1-oxoisoindolin-2-yl)piperidine-2,6-dione]
IC50 for inhibiting the proliferation of tumor cells, SW620 (SW620): A+ | IC50 for inhibiting the proliferation of tumor cells, CCRF-CEM (CCRF-CEM): A+ | IC50 for inhibiting the proliferation of tumor cells, Vcap (Vcap): A+ | IC50 for inhibiting the proliferation of tumor cells, CAL-62 (CAL-62): A+

CCC(=C(c1ccc(O)cc1)c1ccc(N2CCN(Cc3cc(F)c4c(c3)CN(C3CCC(=O)NC3=O)C4=O)CC2)cc1)c1ccc(O)cc1 (stereo not drawn) [GT-04146, 3-(5-((4-(4-(1,2-bis(4-hydroxyphenyl)but-1-en-1-yl)phenyl)piperazin-1-yl)methyl)-7-fluoro-1-oxoisoindolin-2-yl)piperidine-2,6-dione]
IC50 for inhibiting the proliferation of tumor cells, SW620 (SW620): A+ | IC50 for inhibiting the proliferation of tumor cells, CCRF-CEM (CCRF-CEM): A+ | IC50 for inhibiting the proliferation of tumor cells, Vcap (Vcap): A+ | IC50 for inhibiting the proliferation of tumor cells, CAL-62 (CAL-62): A+

CCC(=C(c1ccc(O)cc1)c1ccc(N2CCN(Cc3cccc4c3CN(C3CCC(=O)NC3=O)C4=O)CC2)cc1)c1ccc(O)cc1 (stereo not drawn) [GT-04147, 3-(4-((4-(4-(1,2-bis(4-hydroxyphenyl)but-1-en-1-yl)phenyl)piperazin-1-yl)methyl)-1-oxoisoindolin-2-yl)piperidine-2,6-dione]
IC50 for inhibiting the proliferation of tumor cells, CCRF-CEM (CCRF-CEM): A+ | IC50 for inhibiting the proliferation of tumor cells, Vcap (Vcap): A+ | IC50 for inhibiting the proliferation of tumor cells, CAL-62 (CAL-62): A+

CCC(=C(c1ccc(O)cc1)c1ccc(N2CCN(Cc3ccc4c(c3)C(=O)N(C3CCC(=O)NC3=O)C4=O)CC2)cc1)c1ccc(O)cc1 (stereo not drawn) [GT-04148, 5-((4-(4-(1,2-bis(4-hydroxyphenyl)but-1-en-1-yl)phenyl)piperazin-1-yl)methyl)-2-(2,6-dioxopiperidin-3-yl)isoindoline-1,3-dione]
IC50 for inhibiting the proliferation of tumor cells, CCRF-CEM (CCRF-CEM): A+ | IC50 for inhibiting the proliferation of tumor cells, Vcap (Vcap): A+ | IC50 for inhibiting the proliferation of tumor cells, CAL-62 (CAL-62): A+
